In PMC12112773, “Chemical Constituents and α-Glucosidase Inhibitory Activities of the Leaves of Embelia parviflora—In Vitro and In Silico Studies” (Life, 2025):
Like-named read-outs stand apart in the source and are kept apart here.

Assays:
[1] = molecular target: T1, α-glucosidase from Saccharomyces cerevisiae (Saccharomyces cerevisiae, UniProt P53341); test: in vitro assay of α-glucosidase enzyme inhibition (p-nitrophenyl α-D-glucopyranoside substrate); type: biochemical
T1 construct: purchased Sigma Aldrich (St. Louis, MO, USA)
T1 sequence (P53341 whole entry): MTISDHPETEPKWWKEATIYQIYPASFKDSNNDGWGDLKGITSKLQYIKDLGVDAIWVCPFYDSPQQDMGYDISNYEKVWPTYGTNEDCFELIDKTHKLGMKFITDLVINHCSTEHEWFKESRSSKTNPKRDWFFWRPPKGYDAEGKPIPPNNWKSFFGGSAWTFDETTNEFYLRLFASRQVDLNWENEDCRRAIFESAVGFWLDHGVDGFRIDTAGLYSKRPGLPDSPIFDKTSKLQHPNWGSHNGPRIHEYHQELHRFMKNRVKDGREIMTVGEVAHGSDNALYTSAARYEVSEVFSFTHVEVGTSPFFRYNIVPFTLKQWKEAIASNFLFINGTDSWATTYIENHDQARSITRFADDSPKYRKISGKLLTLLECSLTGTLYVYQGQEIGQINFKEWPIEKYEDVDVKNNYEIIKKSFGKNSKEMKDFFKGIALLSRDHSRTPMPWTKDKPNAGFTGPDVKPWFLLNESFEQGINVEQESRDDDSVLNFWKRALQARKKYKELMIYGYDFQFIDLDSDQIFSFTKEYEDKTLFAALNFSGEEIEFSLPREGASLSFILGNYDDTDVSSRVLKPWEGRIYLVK
Experimental: Enzyme α-glucosidase from Saccharomyces cerevisiae (E.C. 232-604-7) and p-nitrophenyl-α-D-glucopyranoside were purchased from Sigma Aldrich (St. Louis, MO, USA).
The in vitro assay of α-glucosidase enzyme inhibition of the E. parviflora MeOH extract and tested compounds was conducted following the methodology outlined in our earlier study [38]. Briefly, solutions of MeOH extract and isolated compounds at 256 μg/mL, 64 μg/mL, 16 μg/mL, 4 μg/mL, and 1 μg/mL concentrations were prepared using DMSO (Merck). The compound solution (2 μL) and 0.2 U/mL α-glucosidase enzyme solution (25 µL) in 120 µL phosphate buffer were mixed. After 5 min preincubation, a solution of 2.5 mM p-nitrophenyl α-D-glucopyranoside (25 µL) prepared in phosphate buffer was added. The reaction mixture was incubated at 37 °C for 30 min and was stopped by adding 0.2 M of Na2CO3 (100 µL). Enzymatic activity (the absorbance of the released p-nitrophenol) was quantified by measuring at 410 nm using a Biotek reader. The % inhibition was calculated using the following equation:Inhibition (%) = [1 − (Asample/Acontrol)] × 100
The biological experiments were performed in triplicate. The IC50 values are presented as the mean ± standard deviation (S.D) using the program Statistica 10.

α-glucosidase = conditions: cited from earlier work
[2] = mean ± S.D, triplicate, 37 °C, 30 min, read-out: α-Glucosidase inhibitory activity IC50

| IC50 [1, 2] [µM] | SMILES | also measured |
| --- | --- | --- |
| > 419 | CC1OC(Oc2c(-c3ccc(O)c(OC4OC(CO)C(O)C(O)C4O)c3)oc3cc(O)cc(O)c3c2=O)C(O)C(O)C1O (stereo not drawn) [Compound 8, quercetin-3-rhamnoside-3′-glucoside] | – |
| > 444 | CC[C@H](CC[C@@H](C)[C@H]1CC[C@H]2[C@@H]3CC=C4C[C@@H](O[C@@H]5O[C@H](CO)[C@@H](O)[C@H](O)[C@H]5O)CC[C@]4(C)[C@H]3CC[C@]12C)C(C)C [Compound 2, daucosterol] | anti-α-glucosidase activity IC50 (α-glucosidase): 247.35 µg/mL |
| > 509 | CC1=CC(=O)CC(C)(C)[C@H]1/C=C/[C@@H](C)O[C@@H]1O[C@H](CO[C@@H]2OC[C@](O)(CO)[C@H]2O)[C@@H](O)[C@H](O)[C@H]1O [Compound 11, (6R,7E,9R)-9-hydroxy-4,7-megastigmadien-3-one-9-O-β-D-apiofuranosyl(1->6)-β-D-glucopyranoside] | – |
| > 1440 | COC(=O)/C=C/c1ccc(O)cc1 [Compound 13, methyl trans-p-coumarate] | IC50 (α-glucosidase; read-out: inhibition of α-glucosidase IC50): 54.1 µM |
| > 1230 | CC1=CC(=O)CC(C)(C)[C@H]1/C=C/[C@@H](C)O [Compound 9, (6R,9R)-9-hydroxy-4,7-megastigmadien-3-one] | – |
| > 1140 | CC(=O)C=C=C1C(C)(C)C[C@H](O)C[C@]1(C)O [Compound 10, grasshopper ketone] | – |
| > 2000 | CC1=C(O)C(=O)OC1C (stereo not drawn) [Compound 16, sotolone] | – |

More lines, now with the values behind:

| SMILES | IC50 [1, 2] [µM] | also measured |
| --- | --- | --- |
| CC1=CC(=O)CC(C)(C)[C@@]1(O)/C=C/[C@@H](C)O [Compound 12, vomifoliol] | – | α-glucosidase inhibitory activity (in words) (α-glucosidase): inactive; IC50 [1]: > 1140 µM |
| C[C@H]1[C@H](C)CC[C@]2(C(=O)O)CC[C@]3(C)C(=CC[C@@H]4[C@@]5(C)CC[C@H](O)C(C)(C)[C@@H]5CC[C@]43C)[C@H]12 [Compound 4, ursolic acid] | – | manner of inhibition (α-glucosidase): non-competitive; IC50 [1]: 3.07 µM |
| CCCCCCCCCCCCCCCC(=O)OC[C@H]1O[C@@H](O[C@H]2CC[C@@]3(C)C(=CCC4C3CC[C@@]3(C)C4CC[C@@H]3[C@H](C)/C=C/[C@@H](CC)C(C)C)C2)[C@H](O)[C@@H](O)[C@@H]1O (stereo partly drawn) [Compound 3, 3-O-(6′-O-palmitoyl)-β-D-glucopyranosyl stigmasterol] | > 315 | – |
| C[C@@H]1O[C@@H](Oc2c(-c3ccc(O)c(O)c3)oc3cc(O)cc(O)c3c2=O)[C@H](O)[C@H](O)[C@H]1O [Compound 7, quercitrin] | – | IC50 (α-glucosidase; Dang's group, read-out: α-glucosidase inhibitory activity IC50): 26.5 µM; IC50 [1]: 375 µM |
| CC[C@H](CC[C@@H](C)[C@H]1CC[C@H]2[C@@H]3CC=C4C[C@@H](O)CC[C@]4(C)[C@H]3CC[C@]12C)C(C)C [Compound 1, β-sistosterol] | > 617 | anti-α-glucosidase activity IC50 (α-glucosidase): 283.67 µg/mL |
